The values that follow come from PubChem BioAssay (NCI).

Structures are written as SMILES. Where “and” joins values, the source holds several entries; their conditions need not be identical. Equal entries are not always repeated.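 Following 48 hours of exposure in 96-well plates, responses at five concentrations were used to interpolate endpoints linearly. Here, GI50 denotes the concentration required for 50% inhibition of growth. TGI denotes the concentration required for complete inhibition of growth.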

What all share (assay): NCI tumour cell line growth inhibition, 48 h
Assay [1] relates to RXF-631 renal.
For assay [2], the system named is DLD-1 colon.
The test system of assay [3] is SNB-78 CNS.
The test system of assay [4] is DMS 114 small cell lung.
Assay [5] has as its system M19-MEL melanoma.
The test system of assay [6] is DMS 273 small cell lung.
For assay [7], the system named is LXFL 529 NSCLC.
For assay [8], the system named is XF 498 CNS.
The test system of assay [9] is MDA-N.
In assay [10] the test system is P388 leukemia.
For assay [11], the system named is P388/ADR leukemia.
Assay [12] deals with SN12K1 renal.

As for `COC(=O)N/N=C(\C)c1sc(-c2nc(C)c(/C(C)=N/NC(=O)OC)s2)nc1C`, the TGI in [1], in [2], in [3], in assay [4], in [5] and in [6] was more than 100 µM throughout. Further, the TGI in assay [7] was more than 100 µM.
On to `O=[N+]([O-])c1ccc(/C=C/c2ccc(/C=C/c3ccc([N+](=O)[O-])cc3[N+](=O)[O-])cc2)c([N+](=O)[O-])c1`, for which the TGI in assay [2], in assay [3], in assay [4], in assay [8], in assay [6] and in assay [7] was more than 100 µM in each case.
In the case of `CC1(C)CC2=NO[Se]3=C2C(=NO3)C1`, the TGI in [9] is 4.22 µM.
Regarding `C=C(C)c1nc(Oc2ccccc2)nc(Oc2ccccc2)n1`, the TGI in assay [10] was found to be 3.63 µM; in assay [1] it was 13.5 µM; in assay [2], 6.62 µM; in assay [11] it was 2.7 µM; in assay [3], 26.8 µM; in assay [4], 8.79 µM. Moreover, the TGI in assay [8] was determined as 13 µM; in [5], 7.93 µM; in assay [12] it was 8.88 µM; in [6], 19.7 µM; in assay [7], 3.88 µM; in assay [9], 14.8 µM.
Consider `CN(C)c1ccc(/C=C2\CCc3ccccc3C2=O)cc1Br`, for which the TGI in assay [2], in assay [3], in assay [8], in [5], in assay [6] and in assay [7] was more than 100 µM throughout.
In the case of `CNS(=O)(=O)NNS(=O)(=O)c1ccc(C)cc1`, the TGI in assay [2], in assay [4] and in [5] was more than 100 µM each time.
Consider `O=C1NC(=O)C2C3C=CC(C12)C1C2C(=O)NC(=O)C2C31` (stereo unspecified), for which the TGI is 228 µM in assay [10]; 250 µM in assay [2]; 250 µM in assay [11]; 250 µM in [3]; 233 µM in assay [4]; 244 µM in assay [8]. For the same compound, the TGI in assay [5] is 250 µM; in assay [12], 250 µM; in [6], 250 µM; in assay [9], 250 µM and > 1000 µM. The GI50 in assay [2] was 39 µM; in assay [4] it was more than 60.5 µM; in assay [5], 98.2 µM; in assay [9], 193 µM.
For `Nc1ccccc1C(=O)/C=C/c1ccccc1O`, the TGI in assay [1], in assay [2], in [3], in assay [4], in assay [8] and in [5] was more than 100 µM throughout. Besides, in [7], the TGI was more than 100 µM.
`CN(C)CCNC(=O)c1cccc2c1nc(-c1cccnc1)c1ccccc12`: the TGI came to 16.7 µM in assay [1]; 21.2 µM in [2]; 26.3 µM in assay [3]; 18.8 µM in [4]; 18.5 µM in assay [5]; 14.2 µM in assay [6].
As to `O=S(=O)(O)C(c1ccccc1)C(O)c1ccccc1` (stereo unspecified), in assay [9], the TGI is more than 100 µM.
In the case of `CC1(C)CC(=O)C(C(=O)Nc2cccs2)=C(O)C1`, the TGI in assay [1] was more than 100 µM; in [2], more than 100 µM; in assay [3], more than 100 µM; in assay [8], 82.7 µM; in [5], more than 100 µM; in assay [6], 82 µM. In addition, the TGI in assay [7] is more than 100 µM.
In turn, `NS(=O)(=O)c1cc2c(cc1Cl)NCNS2(=O)=O` displayed a TGI in assay [9] of more than 100 µM.
Turning to `CCC12C=C(C(=O)OC)N3c4ccccc4C4CCN(CCC1)C2C43` (stereo unspecified), the TGI in [2], in [3], in assay [4], in assay [5], in assay [6] and in assay [7] was more than 100 µM each time.
As for `Cc1ccccc1NC(=O)CC(=O)NNCC(=O)Nc1nnc(-c2ccccc2)s1`, the TGI in [1], in assay [2], in assay [3], in assay [4], in assay [8] and in assay [5] was more than 100 µM each time. The TGI in [6] and in [7] was more than 100 µM each time.
With `CC(C)(C)C1CC[C@H]2c3c([nH]c4ccccc34)[C@H]3C(=O)N(c4ccc(F)cc4)C(=O)[C@H]3[C@H]2C1` (stereo partly specified), the TGI in assay [2] worked out at 37.4 µM; in assay [3], 36.8 µM; in [4], 38 µM; in assay [8], 32.3 µM; in assay [5], 34.7 µM; in [6], 33.3 µM. Further, the TGI in assay [7] came to 30.7 µM.
As to `N#CC1(CCCCl)CCCCC1`, the TGI in assay [1], in assay [2], in [3], in [4], in assay [8] and in assay [5] was more than 100 µM each time. Further, the TGI in [6] and in assay [7] was more than 100 µM in each case.
Compound `O=C1c2ccccc2N1C(=O)c1ccccc1[N+](=O)[O-]` returned a TGI in assay [9] of more than 100 µM.
Take `O/N=C1/C(=C/c2ccc(OCc3ccccc3)cc2)CCCC1C(NO)c1ccc(OCc2ccccc2)cc1` (stereo unspecified): the TGI in [1], in [2], in [5], in [6] and in [7] was more than 100 µM throughout.
In assay [9], `O=C1NC(c2ccccc2Cl)Nc2ccccc21` (stereo unspecified) returned a TGI of 3.29 µM.
With `CCCCCNC(=O)CCCCCCCCCCCNC(=O)CCCCCCCCCCN1C=CC(=CC=C2C=CC(=O)C=C2)C=C1`, the TGI in [1] was more than 100 µM; in assay [2], more than 100 µM; in [3] it was 96.9 µM; in assay [4], more than 100 µM; in [8] it was more than 100 µM; in assay [5] it was more than 100 µM. Besides, the TGI in [6] and in assay [7] was more than 100 µM throughout.
For the compound `COc1nc(N)nc2nc[nH]c12`, the TGI in [10] was 500 µM; in assay [1] it was 800 µM; in assay [2], 500 µM and 800 µM; in assay [11] it was 500 µM; in [3], 500 µM and 800 µM; in [4], 500 µM and > 800 µM. Also, the TGI in assay [8] was 498 µM; in assay [5] it was more than 800 µM; in assay [12], 500 µM; in assay [6], 500 µM and > 800 µM; in assay [7], more than 800 µM; in [9], more than 1000 µM. Besides, the GI50 was 655 µM in assay [2]; 684 µM in assay [3]; more than 800 µM in assay [4]; more than 800 µM in assay [5]; more than 800 µM in assay [6]; 760 µM in assay [9].
For the compound `CC(=O)NC(CCCNC(=O)OCc1ccccc1)C(=O)NCc1ccccc1` (stereo unspecified), the TGI in [2], in assay [4], in assay [8], in [5], in assay [6] and in assay [7] was more than 100 µM throughout.
Take `O=C(CC1(O)C(=O)Nc2c(Cl)cc(Cl)cc21)c1cccc([N+](=O)[O-])c1` (stereo unspecified): the TGI was 92.1 µM in [1]; more than 100 µM in assay [2]; more than 100 µM in assay [3]; 43.3 µM in assay [4]; 37.3 µM in assay [8]; 16.7 µM in [5]. The TGI was more than 100 µM in assay [6], 30 µM in assay [7] and 34.6 µM in assay [9].
For `Cc1ccccc1NC(=O)C1C(=O)N(c2ccccc2C)C(=O)/C1=N\NC(N)=O` (stereo unspecified), the TGI in [2], in assay [3], in [4], in [5], in assay [6] and in assay [7] was more than 100 µM in each case.
Take `CN1S(=O)(=O)N(C)P12(N=P(CP(=NP13(N(C)S(=O)(=O)N1C)N(C)S(=O)(=O)N3C)(c1ccccc1)c1ccccc1)(c1ccccc1)c1ccccc1)N(C)S(=O)(=O)N2C`: the TGI in assay [1], in assay [2], in assay [3], in assay [4], in [8] and in assay [5] was more than 100 µM in each case. In addition, the TGI in [6] and in [7] was more than 100 µM throughout.
On to `CN(C)c1ccc(/C=c2/sc3nc(=O)c(-c4ccccc4NC(=O)C(F)(F)F)nn3c2=O)cc1`, for which the TGI was more than 100 µM in [2]; more than 100 µM in assay [3]; 57.2 µM in assay [4]; more than 100 µM in [8]; more than 100 µM in assay [5]; more than 100 µM in [6]. The same compound showed a TGI in [7] of more than 100 µM.
Turning to `CCCCC(C(=O)C(=O)Nc1ccccc1CC)C(=O)C(C)C` (stereo unspecified), the TGI in [1], in assay [2], in assay [3], in assay [4], in assay [8] and in assay [5] was more than 100 µM throughout. In addition, the TGI in assay [6] and in assay [7] was more than 100 µM throughout.
For the compound `O=C(CC1(O)C(=O)Nc2c(Cl)ccc(Cl)c21)c1ccc(Cl)cc1` (stereo unspecified), the TGI in [1] was 64.3 µM; in assay [2], more than 100 µM; in assay [3] it was more than 100 µM; in assay [4], 49.2 µM; in assay [8], 39.9 µM; in assay [5] it was 33.3 µM. For the same compound, the TGI in [6] is 73.5 µM; in assay [7], 88.9 µM.
Take `O=C1c2ccccc2C2(O)N(c3ccccc3)C(=S)N(c3ccccc3)C12O` (stereo unspecified): the TGI in [1], in [2], in [3], in assay [4], in assay [5] and in assay [6] was more than 100 µM each time. Moreover, the TGI in [7] is more than 100 µM.
For `CC(C)(C)c1ccc(OCCOCCOc2ccc(C(C)(C)C)cc2S(N)(=O)=O)c(S(N)(=O)=O)c1`, the TGI in [1], in [2], in assay [3], in assay [4], in assay [5] and in assay [6] was more than 100 µM each time.
For the compound `O=c1c2cc(Br)ccc2nc(CNc2ccccc2)n1-c1ccccc1`, the TGI in assay [2] was 21.6 µM; in [3], 57.9 µM; in [4], 25.6 µM; in assay [8], 29.1 µM; in assay [5], 29.7 µM; in assay [6], more than 100 µM. The compound further returned a TGI in assay [7] of 36.9 µM.
On to `N#Cc1c(CC(=O)O)cc(=O)n2c1[nH]c1ccccc12`, for which the TGI in assay [2], in [3], in assay [4], in [5] and in assay [6] was more than 100 µM throughout.
For `CCOC(=O)C1(C)CCC(C(=O)OC)C1=O` (stereo unspecified), the TGI is more than 100 µM in [2]; more than 100 µM in assay [3]; 35.1 µM in assay [4]; more than 100 µM in assay [8]; more than 100 µM in assay [5]; more than 100 µM in [7].
`CC(C)(C)C1CCC(O)(c2ccccc2)CC1` (stereo unspecified): the TGI is > 100 µM and 75.5 µM in assay [2]; > 100 µM and 57 µM in assay [3]; > 100 µM and 52.5 µM in [4]; 22.9 µM in [8]; > 100 µM and 41.6 µM in assay [5]; > 100 µM and 33.6 µM in assay [6]. The TGI in assay [7] was > 100 µM and 49.2 µM.
Turning to `COC(=O)C1CC(=O)O[C@H]1c1ccc(OC)c(OC)c1` (stereo partly specified), the TGI in [1], in assay [2], in assay [3], in [4], in assay [8] and in assay [5] was more than 100 µM each time. The TGI in assay [6] and in [7] was more than 100 µM in each case.
